Measurements as given in publication PMC12651750 (Cells, 2025).
Like-named read-outs stand apart in the source and are kept apart here.

Key:
Jurkat cells [1] = test: Cell cycle analysis (propidium iodide, flow cytometry); assay type: cell-based, human; conditions: 48 h
Description: Jurkat cells were cultured to the appropriate density. Jurkat cells were stimulated with three concentration gradients of 0.2 µM, 1 µM, and 5 µM of NBU-2, and DMSO (as a control) for 48 h. Cells were collected, fixed overnight using pre-cooled 70% ethanol, and then stained according to the instructions. Subsequently, flow cytometry was used to detect using flow cytometry.

[2] = system: Jurkat, human leukemic T cell line; test: Anti-proliferation MTT / CCK-8 assay; assay type: cell-based; conditions: 72 h; for IC50: Homo sapiens, Jurkat
Description: (§1) These cells were purchased from the National Collection of Authenticated Cell Cultures (Shanghai, China).
(§2) The concentration of the cell suspension was adjusted to the appropriate concentration with fresh medium (the number of cells was about 30–40% of the bottom area of the well plate). 150 μL (about 1 × 10^4 cells) of prepared cell suspension containing different concentrations of NBU-2 were added to a 96-microtiter plate, and 3 replicate wells were set up for each concentration. If the cells were adherent, the cells were first allowed to grow overnight in 96 microtiter plates until the cells were adherent, and then the old medium was replaced with the drug-containing medium. The plates were incubated in a 5% CO2 cell incubator at 37 °C for 72 h. Then, 15 μL of MTT solution was added to each well, 100 μL of 10% SDS solution (pH = 2) was added after 4 h, and the plate was incubated at 37 °C with 5% CO2 overnight to fully dissolve the crystals.
(§3) The cells (about 1 × 10^4 cells) were treated with different concentrations of NBU-2 and DMSO control for different times (24 h, 48 h, 72 h), with 3 replicate wells for each concentration. Incubate at 37 °C in a 5% CO2 cell culture incubator. After a predetermined time, 10 μL of CCK-8 was added to each well and incubated for 2 h. The absorbance was measured at the excitation wavelength of 450 nm.

Jurkat cells [3] = test: Western blot of protein levels; assay type: cell-based, human; conditions: 0.2, 1, 5 µM, 48 h
Description: Jurkat cells were stimulated with NBU-2 (0.2 µM, 1 µM, 5 µM) and DMSO, respectively, for 48 h. Cells were lysed by the addition of appropriate RIPA Lysis Buffer (containing protease inhibitors and phosphatase inhibitors), and protein concentrations were determined using the BCA assay. Centrifuge the above cell lysates at 12,000× g for 10 min at 4 °C and retain the supernatant. After diluting the samples to the same concentration with lysate, add the corresponding volume of SDS-PAGE protein uploading buffer (5×), and the proteins were denatured by boiling at 100 °C for 10 min. According to the molecular weight of the target protein, we selected the corresponding concentration of the gel for electrophoresis. After electrophoresis, the proteins on the gel were transferred to the PVDF membrane. The transfer time could be adjusted appropriately according to the molecular weight of the proteins. Subsequently, the corresponding protein primary antibody was taken, and the corresponding antibody was diluted according to the instructions and incubated overnight at 4 °C on a shaker. The following day, it was conjugated to the secondary antibody. The protein bands were then visualized under the ChemiDoc system using the chemiluminescent developer. Antibodies HDAC1 (Cat#10197-1-AP), HDAC6 (Cat#12834-1-AP), Bax (Cat#60267-1-1), BAD (Cat#10435-1-AP), Bcl-2 (Cat#12789-1-AP), Bcl-xl (Cat#10783-1-AP), Caspase3/P17/P19 (Cat#19677-1-AP), Caspase8/P43/P18 (Cat#13423-1-AP), and P21 (Cat#10355-1-AP) were purchased from Wuhan, China. Antibody actin (Cat#21338-1) was purchased from SAB, China. Acetyl-Histone H3 (Cat#AF1684), Acetyl-Histone H4 (Cat#AJ4218), Phos-AKT1 (Cat#AF1546), CDK4 (Cat#AF2515), Cyclin D1 (Cat#AF0126), and Phos-RB1 (Cat#AF1135) were purchased from Beyotime International, Nantong, China. H3 (Cat#A2348) and Caspase3 (A19653) were purchased from ABclonal, Wuhan, China. Cleaved-Caspase9 (Cat#52873T) was purchased from Cell Signal Technology, Danvers, MA, USA.

Jurkat cells [4] = test: Annexin V-FITC/PI apoptosis assay (flow cytometry); assay type: cell-based, human; conditions: 48 h
Description: Apoptosis was assessed using an Annexin V-FITC Apoptosis Detection Kit according to the manufacturer’s instructions. Briefly, cells were double-stained with fluorescein isothiocyanate (FITC)-conjugated Annexin V and propidium iodide (PI). Jurkat cells were cultured to the appropriate density. Three sets of concentration gradients, namely 0.2 μM, 1 μM, and 5 μM, were established while DMSO was used as the control. The Jurkat cells were cultured for 48 h. Centrifuge at 1000× g for 5 min to precipitate the cells. We collected the cells, added the staining solution according to the instructions of the Annexin V-FITC Apoptosis Detection Kit to complete the staining, and immediately tested the cells on Flow cytometry.

Jurkat cells [5] = test: Reactive oxygen species assay (DCFH-DA probe); assay type: cell-based, human; conditions: 0.2, 1, 5 µM, 48 h; concentration-dependent
Description: Cells were treated with 0.2 µM, 1 µM, 5 µM, and DMSO for 48 h. Then the probes were loaded using serum-free medium and incubated for 20 min at 37 °C in a cell incubator. Next, the cells were collected.

[6] = system: HUVEC, human umbilical vein endothelial cells; test: Toxicity on normal cells (MTT / CCK-8 assay); assay type: cell-based
Description: as §1, §2, §3

`Cc1cccc2c(=O)c3c(NCCCCCC(=O)NO)ccc([N+](=O)[O-])c3[nH]c12` [NBU-2, N-hydroxy-6-((5-methyl-4-nitro-9-oxo-9,10-dihydroacridin-1-yl)amino)hexanamide] was tested, and the “Percentage of cells in G0/G1 phase (2N)” value (Jurkat cells [1]; 0.2 μM) was 35.3%, the “Percentage of cells in G0/G1 phase (2N)” value (Jurkat cells [1]; 1 μM) was 40.4% and the “Percentage of cells in G0/G1 phase (2N)” value (Jurkat cells [1]; 5 μM) was 57.9%. The “Inhibitory effect on Jurkat cells over time” value ([2]; CCK-8, 24 h, 48 h, various concentrations) was “concentration and time-dependent”, the IC50 ([2]; read-out: IC50 against Jurkat cells) was 0.86 µM and the IC50 ([2]; read-out: IC50 proliferation Jurkat, heading: IC50 proliferation Jurkat, mean ± SEM of three independent assays) was 0.86 ± 0.13 µM. The Ac-H4 level (Jurkat cells [3]) was “no significant change”, the BAD expression (Jurkat cells [3]) was “unaffected” and the Bcl-2 expression (Jurkat cells [3]) was “reduced”. The Bcl-XL expression (Jurkat cells [3]) was “reduced”, the “Caspase-3 (prototype) expression” value (Jurkat cells [3]) was “did not affect” and the “Caspase-8 (prototype) expression” value (Jurkat cells [3]) was “did not affect”. The “Caspase-9 (prototype) expression” value (Jurkat cells [3]) was “did not affect”, the “HDAC1 protein expression level” value (Jurkat cells [3]) was “not affected” and the “HDAC6 protein expression level” value (Jurkat cells [3]) was “not affected”. The “Protein level of p-Akt (Ser473)” value (Jurkat cells [3]) was “significantly reduced”, the “Total histone H3” value (Jurkat cells [3]) was “not affected” and the CDK4 expression (Jurkat cells [3]; concentration-dependent) was “inhibited”. The “Cyclin D1 expression” value (Jurkat cells [3]; concentration-dependent) was “inhibited”, the “Intracellular Ac-H3 protein level” value (Jurkat cells [3]; concentration-dependent) was “significantly increased” and the p21 expression (Jurkat cells [3]; concentration-dependent) was “increased”. For the same compound, the BAX expression (Jurkat cells [3]; with concentration) was “increased”, the Cleaved-Caspase-3 expression (Jurkat cells [3]; with increasing concentration) was “increased” and the Cleaved-Caspase-9 expression (Jurkat cells [3]; with increasing concentration) was “increased”. The p-Rb expression (Jurkat cells [3]; with increasing concentration) was “decreased”, the “Percentage of cells in early apoptotic stage (Q3)” value (“Percentage of cells … (Q3)” below) (Jurkat cells [4]; 0.2 μM) was 11.5% and the “Percentage of cells … (Q3)” value (Jurkat cells [4]; 1 μM) was 16.1%. For the same compound, the “Percentage of cells … (Q3)” value (Jurkat cells [4]; 5 μM) was 84.7%, the “Levels of reactive oxygen species relative to DMSO” value (Jurkat cells [5]) was “significantly increased” and the IC50 ([6]; 72 h, read-out: IC50 anti-proliferative activity against HUVECs) was 35.6 µM. It also gave an IC50 ([6]; read-out: IC50 proliferation HUVEC (normal cells), heading: IC50 proliferation HUVEC, 72 h, mean ± SEM of three independent assays) of 35.6 ± 7.3 µM.
